# Laboratory results: patent publication US20230278987A1, “Antimicrobial Compounds and Methods” (Curza Global, LLC, priority 2019, published 2023)
# Where a name gives a salt, the structure may show the parent alone. Read-outs that look alike come from different tables or passages of the source.
# Experiments:
# S.aureus (Sa) = test: Broth microdilution MIC against S.aureus (Sa); type: cell-based; conditions: Staphylococcus aureus, read-out: Sa + bicarb 25 (MIC)
# Method: (§1) A certified BSL-2 laboratory was used for testing. Compounds were evaluated using the broth microdilution minimum inhibitory concentration (MIC) and minimum bactericidal concentration (MBC) assays defined by Clinical and Laboratory Standards Institute (CLSI) in the M26-A guideline against S.aureus (Sa), E.coli (Ec), K.pneumoniae (Kp), A.baumannii (Ab), E.faecalis (Ef) and P.aeruginosa (Pa).
# (§2) MICs were determined using the Clinical Laboratory and Standards Institute (CLSI) Broth Microdilution Method with slight modification. Clinical and Laboratory Standards Institute (2012). “Methods for dilution antimicrobial susceptibility tests for bacteria that grow aerobically; approved standard, 9th ed. M07-A9. Clinical and Laboratory Standards Institute, Wayne, PA.” Serial two-fold dilutions of compounds are prepared in sterile clear roundbottom 96-well plates.
# (§3) To prepare microdilution trays, two-fold dilutions of antimicrobial agent are prepared in growth medium: Cation-Adjusted Mueller-Hinton Broth (CAMHB), or CAMHB supplemented with sodium bicarbonate (6.25 or 25 mM final concentration prepared from a 1.0 M stock solution) or CAMHB supplemented with heat inactivated human serum (Fisher Cat. # BP2657100) 0-50% by adding 200 µL of the highest concentration to be tested (64 µg/mL, for example) in row A, mixing and transferring 100 µL from row A to 100 µL growth medium in row B, then repeating the mixing and transferring through row H of the 96-well plate, discarding the excess 100 µL remaining. This slight modification to the CLSI protocol enables evaluation of MICs for 3 compounds per plate in triplicate, albeit with only 8 compound dilutions (CLSI protocol enables 2 compounds in triplicate with 10 dilutions). Bacterial suspensions are added to a final concentration of 5 × 10^4 CFU/well by adding 5 µL of a 1:10 dilution of a 0.5 McFarland suspension (1 × 10^8 CFU/mL) for each bacterium evaluated. Bacterial suspensions were prepared using the growth method described by CLSI. Well-isolated colonies (3-5 from an agar plate) were selected using a sterile loop and used to inoculate a tube containing 4 mL of CAMHB. The cultures are incubated at 35 ± 2° C. until it achieves or exceeds the turbidity of the 0.5 McFarland standard, determined by measuring A600nm (usually two to six hours). When growth exceeds a 0.5 McFarland standard, the turbidity is adjusted with broth to be equivalent to a 0.5 McFarland standard.
# E.coli (Ec) = test: Broth microdilution MIC against E.coli (Ec); type: cell-based; conditions: for MIC: Escherichia coli
# Method: as §1, §2, §3
# P.aeruginosa (Pa) = test: Broth microdilution MIC against P.aeruginosa (Pa); type: cell-based; conditions: CAMHB supplemented with sodium bicarbonate 25 mM; for MIC: Pseudomonas aeruginosa, read-out: Pa +bicarb 25 (MIC)
# Method: as §1, §2, §3
# A.baumannii (Ab) = test: Broth microdilution MIC against A.baumannii (Ab); type: cell-based; conditions: CAMHB supplemented with sodium bicarbonate 25 mM; for MIC: Acinetobacter baumannii, read-out: Ab +bicarb 25 (MIC)
# Method: as §1, §2, §3
# E.faecalis (Ef) = test: Broth microdilution MIC against E.faecalis (Ef); type: cell-based; conditions: Enterococcus faecalis, read-out: Ef +bicarb 25 (MIC)
# Method: as §1, §2, §3
# [1] = test system: E.coli S30 extract (bacterial protein synthesis); test: E.coli S30 extract: inhibition of bacterial protein synthesis (luciferase); type: biochemical; conditions: 37° C. for 1 hour
# Method: E.coli S30 extract: Inhibition of bacterial protein synthesis was determined using the E.coli S30 Extract System for Circular DNA (Promega catalog #L-2010) and Luciferase Assay Reagent (Promega catalog #E1500) with slight modifications to a published protocol. Fyfe, C., Sutcliffe, J.A. and Grossman, T.H. (2012) “Development and characterization of a Pseudomonas aeruginosa in vitro coupled transcription-translation assay system for evaluation of translation inhibitors” J. Microbiol. Methods 90(3), 256-261.
# Compounds were serial diluted in 0.5 mL microcentrifuge tubes by mixing and transferring 50 µL from the highest concentration to 50 µL of water, mixing and transferring 50 µL of this 2-fold dilution to 50 µL of water. This mixing and transferring was repeated so that there are a total of 8 tubes with serial dilutions of compound at 10× the desired screening concentration that are ultimately diluted to 1× by the addition of S30 luciferase synthesis mixture. Serial dilutions of compounds were added (2 µL) to wells in a black round bottom 96-well plate. Water (2 µL) was used as a “no inhibitor” control in 4 wells/plate. No DNA control reaction mixture (20 µL; see below) was used as a control in 4 wells/plate for background luminescence. S30 luciferase synthesis mixture (18 µL; see below) was added to wells with compounds or water mixture and incubated at 37° C. for 1 hour. Reactions were stopped by transferring to 4° C. refrigerator for 5 minutes then 25 µL of luciferase activity mix was added. Luminescence was measured using a BioTek Synergy HTX plate reader. % Inhibition was determined relative to no inhibitor controls.
# S30 luciferase synthesis mixture: • 445 µL S30 extract, circular • 712 µL S30 Premix without amino acids • 4.45 µL pBESTluc™ DNA (1 µg/ µL) • 78 µL complete amino acid mixture • 267 µL water
# No DNA control: • 20 µL S30 extract, circular • 32 µL S30 Premix without amino acids • 7 µL complete amino acid mixture • 21 µL water
# [2] = target: Rabbit Reticulocyte Lysate (eukaryotic protein synthesis); test: Rabbit Reticulocyte Lysate: inhibition of eukaryotic protein synthesis (luciferase); type: biochemical; conditions: 30° C. for 90 minutes, read-out: retic. IC50
# Method: Inhibition of eukaryotic protein synthesis was determined using the Rabbit Reticulocyte Lysate System, Nuclease-Treated from Promega (catalog #L-4960) with slight modifications to the manufacturer’s protocol. Compounds were serial diluted in 0.5 mL microcentrifuge tubes by mixing and transferring 50 µL from the highest concentration to 50 µL of water, mixing and transferring 50 µL of this 2-fold dilution to 50 µL of water. This mixing and transferring was repeated so that there are a total of 8 tubes with serial dilutions of compound at 10× the desired screening concentration that are ultimately diluted to 1× by the addition of rabbit reticulocyte luciferase synthesis mixture. Serial dilutions of compounds were added (2.5 µL) to wells in a black round bottom 96-well plate. Water (2.5 µL) was used as a “no inhibitor” control in 4 wells/plate. No RNA control reaction mixture (2 µL; see below) was used as a control in 4 wells/plate for background luminescence. Rabbit reticulocyte luciferase synthesis mixture (22.5 µL; see below) was added to wells with compounds or water mixture and incubated at 30° C. for 90 minutes. Luciferase assay reagent (25 µL) was added with luminescence measured using a BioTek Synergy HTX plate reader. % Inhibition was determined relative to no inhibitor controls.
# Rabbit reticulocyte luciferase synthesis mixture: • 1,000 µL rabbit reticulocyte lysate • 5.7 µL Luciferase Control RNA (1 µg/ µL) • 26 µL complete amino acid mixture • 395 µL water
# No RNA Control • 70 µL rabbit reticulocyte lysate • 2 µL complete amino acid mixture • 28 µL water
# [3] = CAMHB supplemented with sodium bicarbonate 25 mM
# [4] = CAMHB supplemented with sodium bicarbonate 25 mM, read-out: E.coli + bicarb 25 (MIC)
SMILES,MIC (S.aureus (Sa); [3]),MIC (E.coli (Ec); [4]),MIC (P.aeruginosa (Pa)),MIC (A.baumannii (Ab)),MIC (E.faecalis (Ef); [3]),IC50 [1],IC50 [2],MIC (S.aureus (Sa)),E.coli + bicarb 25 (MIC) (E.coli (Ec); [3]),MIC (E.coli (Ec); read-out: E. coli + bicarb 6.25 (MIC)),Pa +bicarb 25 (MIC) (P.aeruginosa (Pa)),Ab +bicarb 25 (MIC) (A.baumannii (Ab)),MIC (E.faecalis (Ef))
CC(C)(N)C(=O)N1CCN(C(=O)Nc2ccn(-c3ccc4c(c3)CCC(N[C@H]3CC[C@H](N)C3)C4)c(=O)n2)CC1 (stereo in doubt) [Compound 10],< 8 µg/mL,< 8 µg/mL,> 32 µg/mL,> 32 µg/mL,< 8 µg/mL,< 500 nM,≥ 1000 nM,,,,,,
CC(C)(N)C(=O)N1CCN(C(=O)Nc2ccn(-c3ccc4c(c3)CCC(N[C@H]3CC[C@@H](N)CC3)C4)c(=O)n2)CC1 (some centres unmarked) [Compound 6],< 8 µg/mL,< 8 µg/mL,> 32 µg/mL,> 32 µg/mL,< 8 µg/mL,< 500 nM,≥ 1000 nM,,,,,,
CC(C)(N)C(=O)N1CCN(C(=O)Nc2ccn(-c3ccc4c(c3)CCC(N[C@H]3CC[C@H](N)CC3)C4)c(=O)n2)CC1 (some centres unmarked) [Compound 7],< 8 µg/mL,< 8 µg/mL,> 32 µg/mL,> 32 µg/mL,< 8 µg/mL,< 500 nM,≥ 1000 nM,,,,,,
CC(C)(N)C(=O)N1CCN(C(=O)Nc2ccn(-c3ccc4c(c3)CCC(NC3CC5(CC(N)C5)C3)C4)c(=O)n2)CC1 (centres unmarked) [Compound 8],< 8 µg/mL,< 8 µg/mL,8 to 32 µg/mL,8 to 32 µg/mL,< 8 µg/mL,< 500 nM,≥ 1000 nM,,,,,,
"CC(C)(N)C(=O)N1CCN(C(=O)Nc2ccn(-c3ccc4c(c3)CCC(N[C@H]3CC[C@H](N)C3)C4)c(=O)n2)CC1 (stereo partly drawn) [Compound 9, 4-(2-amino-2-methylpropanoyl)-N-(1-(6-(((1S,3S)-3-aminocyclopentyl)amino)-5,6,7,8-tetrahydronaphthalen-2-yl)-2-oxo-1,2-dihydropyrimidin-4-yl)piperazine-1-carboxamide hydrochloride salt]",,,,,,< 500 nM,≥ 1000 nM,< 8 µg/mL,+++ (An MIC value (µg/mL) that is less than 8 µg/mL),< 8 µg/mL,+ (An MIC value (µg/mL) that is 32 µg/mL or greater),+ (An MIC value (µg/mL) that is 32 µg/mL or greater),< 8 µg/mL
CN(C1CCc2cc(-n3ccc(NC(=O)N4CCN(C(=O)C(C)(C)N)CC4)nc3=O)ccc2C1)C1CC2(CC(N)C2)C1 (centres unmarked) [Compound 11],< 8 µg/mL,< 8 µg/mL,> 32 µg/mL,> 32 µg/mL,< 8 µg/mL,500 to 1000 nM,≥ 1000 nM,,,,,,
"CC(C)(N)C(=O)N1CCN(C(=O)Nc2ccn(-c3ccc4c(c3)OCC(N3C[C@@H]5[C@@H](CN)[C@@H]5C3)C4)c(=O)n2)CC1 (stereo partly drawn) [Compound 12, exo-4-(2-amino-2-methylpropanoyl)-N-(1-(3-(-6-(aminomethyl)-3-azabicyclo[3.1.0]hexan-3-yl)chroman-7-yl)-2-oxo-1,2-dihydropyrimidin-4-yl)piperazine-1-carboxamide hydrochloride salt]",8 to 32 µg/mL,< 8 µg/mL,> 32 µg/mL,> 32 µg/mL,> 32 µg/mL,≥ 1000 nM,≥ 1000 nM,,,,,,
"CC(C)(N)C(=O)N1CCN(C(=O)Nc2ccn(-c3ccc4c(c3)OCC(N3C[C@@H]5[C@@H](N)[C@@H]5C3)C4)c(=O)n2)CC1 (some centres unmarked) [Compound 13, Hydrochloride Salt]",8 to 32 µg/mL,8 to 32 µg/mL,8 to 32 µg/mL,8 to 32 µg/mL,8 to 32 µg/mL,≥ 1000 nM,≥ 1000 nM,,,,,,
CC(C)(N)C(=O)N1CCN(C(=O)Nc2ccn(-c3ccc4c(c3)OCC(N3CC[C@@H](CN)C3)C4)c(=O)n2)CC1 (some centres unmarked) [Compound 14],< 8 µg/mL,< 8 µg/mL,8 to 32 µg/mL,8 to 32 µg/mL,8 to 32 µg/mL,≥ 1000 nM,≥ 1000 nM,,,,,,
"CN(C1CCc2cc(-n3ccc(NC(=O)N4CCN(C(=O)C(C)(C)N)CC4)nc3=O)ccc2C1)[C@H]1CC[C@H](N)CC1 (some centres unmarked) [Compound 15, 4-(2-amino-2-methylpropanoyl)-N-(1-(6-(((1r,4r)-4-aminocyclohexyl)(methyl)amino)-5,6,7,8-tetrahydronaphthalen-2-yl)-2-oxo-1,2-dihydropyrimidin-4-yl)piperazine-1-carboxamide hydrochloride salt]",< 8 µg/mL,< 8 µg/mL,8 to 32 µg/mL,8 to 32 µg/mL,< 8 µg/mL,< 500 nM,≥ 1000 nM,,,,,,
